Assay results reported in patent US20230255953A1, “USE OF ROLUPERIDONE IN PREVENTING RELAPSE IN SCHIZOPHRENIA PATIENTS” (Minerva Neurosciences, Inc., priority 2022, published 2023).

System: patients with negative symptoms of schizophrenia
Experiment: Integrated analysis of Studies #1 and #2 (pooled ITT): PANSS-derived scores (NSFS, total, positive and negative subscales), DB, OL and whole study
Assay type: in vivo, human
Set-up: key to NSFS Score change from Baseline, Median: change from Baseline in PANSS NSFS points; higher score = more severe
Conditions: for NSFS Score change from Baseline, LS mean (SE) / NSFS Score change from Baseline, Mean (SD) / NSFS Score change from Baseline, Median / NSFS Score, Difference (95% CI) in LS mean (vs placebo) / PANSS Negative Subscale Score change from Baseline, LS mean (SE) / PANSS Negative Subscale Score change from Baseline, Mean (SD) / PANSS Negative Subscale Score change from Baseline, Median / PANSS Negative Subscale Score, Difference (95% CI) in LS mean (vs placebo) / PANSS Total Score change from Baseline, LS mean (SE) / PANSS Total Score change from Baseline, Mean (SD) / PANSS Total Score change from Baseline, Median / PANSS Total Score, Difference (95% CI) in LS mean (vs placebo): DB
Experimental: The primary integrated analysis of the efficacy of Roluperidone compared with placebo for the treatment of negative symptoms of schizophrenia is based on the change from Baseline in the PANSS Marder's negative symptoms factor score (in this document referred to as NSFS) to Week 12. Efficacy is also supported by the analysis of change from Baseline in the PSP Total score and the CGI-S to Week 12.
The PANSS was assessed at the time points described in Table 4.
The PANSS-derived endpoints used in these studies and the integrated analyses are described in Table 5A and a summary of the individual PANSS items used by physicians and clinicians to measure the severity of the symptoms in a schizophrenia patient is provided in Table 5B. The scale is divided into three parts, a positive scale, which provides a “PANSS positive subscore”, a negative scale, which provides a “PANSS negative subscore”, and general psychopathology scale. The sum of these three parts provides a PANSS total score, which ranges from 30 to 210 (where higher scores indicate more severe symptoms). (See Kay, S. R., et al. “The positive and negative syndrome scale (PANSS) for schizophrenia,” Schizophr Bulletin, 13(2), 261-276 (1987) and Gopal, S., et al. “Improvement of Negative Symptoms in Schizophrenia with Paliperidone Palmitate 1-Month and 3-Month Long-Acting Injectables: Results from a Phase 3 Non-Inferiority Study” Neuropsychiatric Disease and Treatment, 681-690, DOI: 10.2147/NDT.5226296, both of which are incorporated by reference.)
The Efficacy data from Study Nos. 1 and 2 were pooled. The majority of patients in the pooled ITT population completed the DB period (502 patients overall, 66.3%), with similar rates in each treatment group (placebo: 69.8%, 32 mg Roluperidone: 65.3%, and 64 mg Roluperidone: 63.8%) (Table 12). The majority (62.7%) of those who completed the DB period entered the OL period. The most common reason for discontinuation during the DB period among patients overall was withdrawal of consent (15.6%), followed by adverse events (7.3%) and lack of efficacy (5.4%) (Table 12). […] Approximately twice as many patients in the Roluperidone groups (32 mg: 8.5%; 64 mg: 9.1%) discontinued due to adverse events compared with patients in the placebo group (4.3%). More patients in the placebo group discontinued due to lack of efficacy (6.7%) than in the Roluperidone groups (32 mg: 4.4%; 64 mg: 5.1%). The low number of patients who discontinued due to lack of efficacy or withdrawal of consent probably reflects a low level of worsening of positive symptoms.
The integrated analysis supporting the efficacy of Roluperidone as a treatment for the negative symptoms of schizophrenia in adults is presented below.

1H-Isoindol-1-one,2-[ [1-[2-(4-fluorophenyl)-2-oxoethyl]-4-piperidinyl]methyl]-2,3-dihydro-, hydrochloride, hydrate (1:1:2) [Roluperidone]
Mean NSFS score improvements, persistence in OL period (32 mg and 64 mg groups, OL period incl. 2 weeks after end of treatment, pooled): sustained and continued during the OL period | NSFS Score change from Baseline, LS mean (SE) (32 mg, Week 2, pooled ITT): −1.1 (0.15) | NSFS Score change from Baseline, Mean (SD) (32 mg, Week 2, pooled ITT): −1.1 (2.15) | NSFS Score change from Baseline, Median (32 mg, Week 2, pooled ITT): −1.0 | NSFS Score, Difference (95% CI) in LS mean (vs placebo) (32 mg, Week 2, pooled ITT): −0.2 | PANSS Negative Subscale Score change from Baseline, LS mean (SE) (32 mg, Week 2, pooled ITT): −1.2 (0.14) | PANSS Negative Subscale Score change from Baseline, Mean (SD) (32 mg, Week 2, pooled ITT): −1.2 (2.11) | PANSS Negative Subscale Score change from Baseline, Median (32 mg, Week 2, pooled ITT): −1.0 | PANSS Negative Subscale Score, Difference (95% CI) in LS mean (vs placebo) (32 mg, Week 2, pooled ITT): −0.1 | PANSS Total Score change from Baseline, LS mean (SE) (32 mg, Week 2, pooled ITT): −1.7 (0.44) | PANSS Total Score change from Baseline, Mean (SD) (32 mg, Week 2, pooled ITT): −1.8 (6.62) | PANSS Total Score change from Baseline, Median (32 mg, Week 2, pooled ITT): −2.0 | PANSS Total Score, Difference (95% CI) in LS mean (vs placebo) (32 mg, Week 2, pooled ITT): −0.4 | PANSS Positive Subscale Score change from Baseline, LS mean (SE) (32 mg, Week 2, pooled ITT): 0.3 (0.17) | PANSS Positive Subscale Score change from Baseline, Mean (SD) (32 mg, Week 2, pooled ITT): 0.2 (2.71) | PANSS Positive Subscale Score change from Baseline, Median (32 mg, Week 2, pooled ITT): 0.0 | PANSS Positive Subscale Score, Difference (95% CI) in LS mean (vs placebo) (32 mg, Week 2, pooled ITT): 0.3 | NSFS Score change from Baseline, LS mean (SE) (32 mg, Week 4, pooled ITT): −2.0 (0.19) | NSFS Score change from Baseline, Mean (SD) (32 mg, Week 4, pooled ITT): −2.2 (2.53) | NSFS Score change from Baseline, Median (32 mg, Week 4, pooled ITT): −2.0 | NSFS Score, Difference (95% CI) in LS mean (vs placebo) (32 mg, Week 4, pooled ITT): −0.7 | PANSS Negative Subscale Score change from Baseline, LS mean (SE) (32 mg, Week 4, pooled ITT): −2.1 (0.19) | PANSS Negative Subscale Score change from Baseline, Mean (SD) (32 mg, Week 4, pooled ITT): −2.3 (2.67) | PANSS Negative Subscale Score change from Baseline, Median (32 mg, Week 4, pooled ITT): −2.0 | PANSS Negative Subscale Score, Difference (95% CI) in LS mean (vs placebo) (32 mg, Week 4, pooled ITT): −0.6 | PANSS Total Score change from Baseline, LS mean (SE) (32 mg, Week 4, pooled ITT): −3.6 (0.53) | PANSS Total Score change from Baseline, Mean (SD) (32 mg, Week 4, pooled ITT): −4.4 (7.09) | PANSS Total Score change from Baseline, Median (32 mg, Week 4, pooled ITT): −4.0 | PANSS Total Score, Difference (95% CI) in LS mean (vs placebo) (32 mg, Week 4, pooled ITT): −1.6 | PANSS Positive Subscale Score change from Baseline, LS mean (SE) (32 mg, Week 4, pooled ITT): −0.1 (0.18) | PANSS Positive Subscale Score change from Baseline, Mean (SD) (32 mg, Week 4, pooled ITT): −0.4 (2.49) | PANSS Positive Subscale Score change from Baseline, Median (32 mg, Week 4, pooled ITT): 0.0 | PANSS Positive Subscale Score, Difference (95% CI) in LS mean (vs placebo) (32 mg, Week 4, pooled ITT): −0.3 | NSFS Score change from Baseline, LS mean (SE) (32 mg, Week 8, pooled ITT): −3.0 (0.23) | NSFS Score change from Baseline, Mean (SD) (32 mg, Week 8, pooled ITT): −3.2 (3.21) | NSFS Score change from Baseline, Median (32 mg, Week 8, pooled ITT): −3.0 | NSFS Score, Difference (95% CI) in LS mean (vs placebo) (32 mg, Week 8, pooled ITT): −0.8 | PANSS Negative Subscale Score change from Baseline, LS mean (SE) (32 mg, Week 8, pooled ITT): −3.1 (0.24) | PANSS Negative Subscale Score change from Baseline, Mean (SD) (32 mg, Week 8, pooled ITT): −3.2 (3.46) | PANSS Negative Subscale Score change from Baseline, Median (32 mg, Week 8, pooled ITT): −3.0 | PANSS Negative Subscale Score, Difference (95% CI) in LS mean (vs placebo) (32 mg, Week 8, pooled ITT): −0.7 | PANSS Total Score change from Baseline, LS mean (SE) (32 mg, Week 8, pooled ITT): −4.9 (0.66) | PANSS Total Score change from Baseline, Mean (SD) (32 mg, Week 8, pooled ITT): −6.2 (7.89) | PANSS Total Score change from Baseline, Median (32 mg, Week 8, pooled ITT): −6.0 | PANSS Total Score, Difference (95% CI) in LS mean (vs placebo) (32 mg, Week 8, pooled ITT): −1.7 | PANSS Positive Subscale Score change from Baseline, LS mean (SE) (32 mg, Week 8, pooled ITT): −0.1 (0.20) | PANSS Positive Subscale Score change from Baseline, Mean (SD) (32 mg, Week 8, pooled ITT): −0.4 (2.50) | PANSS Positive Subscale Score change from Baseline, Median (32 mg, Week 8, pooled ITT): 0.0 | PANSS Positive Subscale Score, Difference (95% CI) in LS mean (vs placebo) (32 mg, Week 8, pooled ITT): −0.3 | NSFS Score change from Baseline, LS mean (SE) (32 mg, Week 12, pooled ITT): −3.5 (0.26) | NSFS Score change from Baseline, Mean (SD) (32 mg, Week 12, pooled ITT): −3.6 (3.08) | NSFS Score change from Baseline, Median (32 mg, Week 12, pooled ITT): −4.0 | NSFS Score, Difference (95% CI) in LS mean (vs placebo) (32 mg, Week 12, pooled ITT): −0.8 | PANSS Negative Subscale Score change from Baseline, LS mean (SE) (32 mg, Week 12, pooled ITT): −3.6 (0.27) | PANSS Negative Subscale Score change from Baseline, Mean (SD) (32 mg, Week 12, pooled ITT): −3.6 (3.37) | PANSS Negative Subscale Score change from Baseline, Median (32 mg, Week 12, pooled ITT): −3.0 | PANSS Negative Subscale Score, Difference (95% CI) in LS mean (vs placebo) (32 mg, Week 12, pooled ITT): −0.7 | PANSS Total Score change from Baseline, LS mean (SE) (32 mg, Week 12, pooled ITT): −5.5 (0.71) | PANSS Total Score change from Baseline, Mean (SD) (32 mg, Week 12, pooled ITT): −6.9 (7.77) | PANSS Total Score change from Baseline, Median (32 mg, Week 12, pooled ITT): −7.0 | PANSS Total Score, Difference (95% CI) in LS mean (vs placebo) (32 mg, Week 12, pooled ITT): −1.9 | NSFS Emotional Experience Score, Change from Baseline (LS Means [SEM]) (32 mg, Week 12, ITT): −1.3 (0.13) | NSFS Emotional Expression Score, Change from Baseline (LS Means [SEM]) (32 mg, Week 12, ITT): −2.2 (0.16) | NSFS, Change from Baseline (LS Means [SEM]) (32 mg, Week 12, ITT): −3.5 (0.26) | PANSS General Psychopathology Subscale, Change from Baseline (LS Means [SEM]) (32 mg, Week 12, ITT): −2.0 (0.37) | PANSS Negative Symptoms Subscale, Change from Baseline (LS Means [SEM]) (32 mg, Week 12, ITT): −3.6 (0.27) | PANSS Positive Symptoms Subscale, Change from Baseline (LS Means [SEM]) (32 mg, Week 12, ITT): −0.1 (0.21) | PANSS Total Score, Change from Baseline (LS Means [SEM]) (32 mg, Week 12, ITT): −5.5 (0.71) | Patients with high improvement in NSFS (magnitude of change >8) (32 mg, Week 12, pooled): 5% | Patients with moderate improvement in NSFS (magnitude of change 6-8) (32 mg, Week 12, pooled): 18% | Patients with moderate or high improvement in NSFS, total (32 mg, Week 12, pooled): 23% | NSFS, LS mean decrease from Baseline compared with placebo (32 mg, Week 12, pooled ITT): −3.5 | PANSS Positive Subscale Score change from Baseline, LS mean (SE) (32 mg, Week 12, pooled ITT): −0.1 (0.21) | PANSS Positive Subscale Score change from Baseline, Mean (SD) (32 mg, Week 12, pooled ITT): −0.6(2.37) | PANSS Positive Subscale Score change from Baseline, Median (32 mg, Week 12, pooled ITT): 0.0 | PANSS Positive Subscale Score, Difference (95% CI) in LS mean (vs placebo) (32 mg, Week 12, pooled ITT): −0.3 | PANSS negative subscale score, LS mean change from Baseline compared with placebo (32 mg, Week 12, pooled ITT): −0.7
